Columns and labels:
[1] = tested on: cerulein pancreatitis (CER-AP); test: Drug treatment of cerulein pancreatitis (CER-AP) in WT mice; type: in vivo, mouse; conditions: WT mice treated with simvastatin or BemA
Protocol: (§1) FIGS. 10A-10N show deranged cholesterol metabolism causes acinar cell damage, while its normalization ameliorates experimental pancreatitis. (A-D) Cholesterol content and trypsin activity were measured (per mg protein) in WT mouse acinar cells incubated for 1 hour without and with methyl-β-cyclodextrin (MCD; 10 mM) or cholesterol-loaded MCD (MCD-Chol; 200 μg/mL), in the presence or absence of 100 nM CCK. Values are expressed relative to those in cells without MCD/MCD-Chol. (E-J) WT mice received daily i.p. injections of the LXR agonist T0901317 (T09), simvastatin (Sim; 20 mg/kg each), or vehicle. On day 4, mice were subjected to CER-AP and pancreata collected for analyses (see also FIG. 20). Cholesterol content (E), trypsin activity (F), and pancreas histopathology (H&E staining; G) were measured. (H, I, L, and N) IB analysis of markers/mediators of autophagy (LC3, p62), ER stress (CHOP, GRP-78), and mitophagy (Parkin). Ub, ubiquitylated proteins. (J) Mitochondrial fragmentation was assessed by immunostaining for Tom20, as detailed in FIG. 7G. (K and L) Mouse acinar cells were treated for 16 hours with LDL (30 μg/mL) or the combination of LDL and 10 μM U18666A. (M and N) Mice received injections of U18666A as detailed in FIG. 9B. Pancreas histopathology (H&E staining; M) and levels of autophagy markers/mediators (N) were measured. Each symbol in A-F and I represents an individual mouse or cell preparation. Values are mean±SEM from 3 to 7 mice or cell preparations per condition. ^§ P<0.05, ^§§ P<0.01 vs. control cells (without MCD/MCD-Chol). ***P<0.001 vs. saline-treated mice. ^#P<0.05, ^##P<0.01, ^###P<0.001 vs. CER-AP alone (no inhibitors). Significance was determined by 2-tailed Student's t test (A-D) or 1-way ANOVA followed by Tukey's multiple comparison test (E, F, and I). Scale bars: 10 μm.
FIGS. 20A-20C show simvastatin improves cerulein pancreatitis. Mice received daily i.p. injections of simvastatin (Sim; 20 mg/kg) or vehicle (see FIG. 10), and on day 4 were subjected to cerulein pancreatitis (CER-AP). (A) Pancreas histopathology (H&E staining; scale: 10 μm). (B) IB analysis of markers/mediators of autophagy (LC3, p62), ER stress (CHOP), and the MLN64/STARD3 protein mediating cholesterol transfer from LE/Ly to mitochondria. Each IB lane represents an individual mouse; ERK1/2 is the loading control. […] Ub, ubiquitylated proteins. (C) Pancreatitis responses. Values are mean±SEM from 7-13 mice for each condition. ***p<0.001 vs saline control. ^###p<0.001 vs CER-AP alone (no simvastatin). Significance was determined by 1-way ANOVA followed by Tukey's multiple comparisons test.
(§2) FIGS. 25A-25C show reducing cholesterol overload greatly ameliorates experimental pancreatitis. CER-AP responses were measured in (A) AclyAac or (C) WT mice treated with simvastatin or bempedoic acid (BemA). (B) Acinar cells were transfected with ACLA (or mock) siRNA and subjected to ex-vivo CCK-AP. Each symbol represents an individual mouse or cell preparation. Values are mean±SE. **p<0.01, ***p<0.001 vs saline treated control mice (or mock transfection); #p<0.05, ##p<0.01, ###p<0.001 vs CER/CCK-AP in control mice (i.e. without inhibitors) or cells.
Cerulein-induced (CER-AP) and L-arginine induced (Arg-AP) acute pancreatitis models were performed in 12-week-old C57BL/6 mice that received 7 hourly i.p. injections of 50 μg/kg cerulein or 3 hourly i.p. injections of 3.3 g/kg Arg; controls received physiologic saline injections. Mice were euthanized for analyses 7 hours after the first cerulein or 24 hours after the first Arg injection. Choline deficient, ethionine-supplemented (CDE) pancreatitis was induced in young (~5-weeks old) female mice fed either CDE or control diet. Mice were euthanized 72 hours after the diet initiation. These models have been described in detail (1-7).
12-week-old WT mice were subjected for 4 consecutive days to daily i.p. injections of 20 mg/kg simvastatin (8,9) or 20 mg/kg T0901317 (10); or 10 mg/kg U18666A for 15 days (11). […]

CER/CCK-AP = test: Effect of simvastatin and BemA in CER/CCK-AP (mouse and ex-vivo model)
Protocol: as §2
(§3) FIGS. 26A-26D preventing cholesterol overload ameliorates ex-vivo pancreatitis. Mouse pancreatic acinar cells were incubated (A, B) with simvastatin (4 μM, 3 h) or (C, D) cholesterol chelator, methyl-β-cyclodextrin (MCD; 10 mM, 1 h) and then subjected to CCK-AP for 1 (D) or 3 h (A, B). Cholesterol content (A, C) necrosis (B), and trypsin activity (D) were measured. Each symbol represents an individual cell preparation. Values are mean±SEM*p<0/05, **p<0.01 vs control; #p<0.05 ##p<0.01; vs CCK, no inhibitor.
Cholesterol metabolism is disrupted in pancreatitis as a result of lysosomal/autophagy dysfunction. Preventing acinar cell cholesterol overload with simvastatin alleviates AP in one experimental model (CER-AP). As discussed above, lysosomal/autophagy dysfunction is associated with both experimental and human pancreatitis.^6, 7, 9, 13, 17 However, until a recent publication^13 there was very little known on cholesterol metabolism in healthy pancreas, its changes in experimental and human pancreatitis, and role in disease severity. Further, effects of statins and other cholesterol-lowering drugs in pancreas, and the underlying mechanisms, have not been explored. […] This, in turn, stimulates a compensatory increase in cholesterol synthesis, further exacerbating cholesterol overload. It was further shown^13 that inhibition of cholesterol synthesis with simvastatin reduced acinar cell cholesterol overload and the severity of pancreatitis induced with supramaximal cerulein (CER), an ortholog of the hormone cholecystokinin-8 (CCK). The findings^13 reveal a previously unrecognized pathogenic role of cholesterol dysregulation in pancreatitis and indicate normalizing cholesterol metabolism as a novel therapeutic approach for disease treatment.
In summary, the published^13 and current data (FIGS. 23-26) reveal that disruption of acinar cell cholesterol metabolism is a common feature in models of experimental pancreatitis and also prominent in human disease. The key manifestation of cholesterol dyshomeostasis in pancreatitis is acinar cell cholesterol overload. […]

muscles = conditions: prodrug activated in the liver; cited from earlier work
trypsin [2] = test: Trypsin activity in Gnptab−/− acinar cells; type: cell-based, mouse; conditions: Gnptab−/− acinar cells, cholesterol chelator MCD
Protocol: FIGS. 6A-6R show mechanisms mediating increased trypsin activity in Gnptab−/− pancreas. Trypsin activity and its regulation were analyzed in pancreatic (A, C, and D) tissue, (B and P-R) acinar cells, (E-H and O) lobules, and (I-N) subcellular fractions. In B, acinar cells were incubated for 3 hours without and with 20 nM BafAl or 50 μM CatB inhibitor CA-074Me; in P-R, with the cholesterol chelator methyl-β-cyclodextrin (MCD) at the indicated concentrations. In E-H, pancreatic lobules were double stained for TAP and LC3 or LAMP2; in O, for TAP and filipin. Quantitative colocalization analysis was done as detailed in FIG. 2. Each symbol in A, B, J-N, Q, and R represents an individual mouse or cell preparation (n=3-8 per condition). Each symbol in D, G, and H corresponds to 20 to 30 cells in a different field (n=9-20 fields from 3 WT and 3 KO mice or lobule preparations). Values are mean±SEM. **P<0.01, ***P<0.001 vs. WT tissue/lobules (A, G, and H) or corresponding WT subcellular fraction (K and M). ##P<0.01 vs. no inhibitors (B) or MCD (Q and R). ††P<0.01, †††P<0.001 vs. the other two fractions (L and N). Significance was determined by 2-tailed Student's t test (A, G, and H) or 1-way ANOVA followed by Tukey's multiple comparison test (B, K-N, Q, and R). Scale bars: 10 μm.
(§4) Activities of cathepsin (Cat) B and L, caspase-3, trypsin, and lysosomal acid lipase (LAL) were measured in pancreatic tissue or cell homogenates and subcellular fractions with fluorogenic assays using substrates specific for CatB (Z-Arg-Arg-AMC), CatL (Z-Phe-Arg-AMC), caspase-3-like ([…]), trypsin (Boc-Gln-Ala-Arg-AMC), as previously described (1-4, 6, 7); and for LAL (4-methylumbelliferyl oleate), as in (17). In measurements of CatL activity, the assay buffer also contained 50 μM CA-074me, a CatB inhibitor. LAL activity was measured in the absence and presence of the LAL inhibitor lalistat (100 μM) as the difference between these values (17).

mouse acinar cells [3] = test: Total cholesterol content of mouse acinar cells (ex vivo pancreatitis models or cholesterol chelator); type: cell-based; conditions: Gnptab−/− acinar cells
Protocol: FIGS. 8A-8M show derangement of cholesterol metabolism in experimental pancreatitis. Characteristics of cholesterol metabolism were measured, as detailed in FIGS. 4A-4R, in pancreas of WT mice subjected to pancreatitis induced with cerulein (CER-AP), L-arginine (Arg-AP), or CDE diet (CDE-AP) (A, B, and E-G); ex vivo pancreatitis induced in WT mouse (C and I-M) or human acinar cells (D) with 100 nM CCK (CCK-AP) or 1 mM carbachol; and isolated pancreatic mitochondria (H). (B) Cholesterol ester (CE) heatmap; each column represents an individual mouse. (F) IB analysis of the indicated proteins. (G) LAL activity was measured by a fluorogenic assay (n=6 mice per condition). (H) Cholesterol content was measured by enzymatic assay. (I-M) Filipin colocalization with indicated proteins was quantified as detailed in FIGS. 2A-2L. Each symbol in A, C-E, and H represents an individual mouse, or cell or mitochondria preparation (n=3-15 per condition). Each symbol in J, K, and M corresponds to 20-30 cells in a different field (n=10-20 fields from 3 cell preparations per condition). Values are mean±SEM. *P<0.05, **P<0.01, ***P<0.001 vs. the same parameter in control/untreated pancreas, acinar cells or isolated mitochondria. Significance was determined by 2-tailed Student's t test (B, E, H, J, K, and M) or 1-way ANOVA followed by Tukey's multiple comparison test (A, C, and D). Scale bars: 10 μm.
Parameters of cholesterol metabolism were measured in (A, B, E, F) pancreas of mice subjected to pancreatitis induced with cerulean (CER-AP), L-arginine (Arg-AP), or combination of EtOH+palmitoleic acid (EtOH+POA); and (C) ex-vivo models on mouse and human acinar cells treated for 1 h with 100 nM CCK, […] or 500 μM TLCS. In (A), each column in CE heatmap represents an individual mouse. (B, C) Total cholesterol content was measured with cholesterol assay kit (Abcam, ab65390). […] Each symbol corresponds to 20-30 cells in each of 8 high-expression (qPCR) of proteins regulating cholesterol synthesis (4 mice/group). (B-D) Each symbol represents an individual animal or cell preparation. (A-D, F) Values are mean±SE (*p<0.05, **p<0.01, ***p<0.001 vs saline or control). Signficance was determined by 2-tailed student's t test.
(§5) Ex vivo pancreatitis models were performed on mouse and human acinar cells, and human pancreas slices by incubation with supramaximal CCK (100 nM) or carbachol (1 mM), as described previously (80, 81).
(§6) Total cholesterol content was measured with Cholesterol Assay kit per manufacturer's instructions. Samples of mouse pancreas and liver, cell pellet homogenates, subcellular fractions, isolated mitochondria, and serum were diluted in the reaction buffer containing cholesterol probe and incubated at 37° C. for 1 h in the dark. To measure total cholesterol, the samples were subjected to digestion with cholesterol esterase. To measure non-esterified cholesterol, the esterase was omitted from the assay.
Fluorescence intensity (for cholesterol) and absorbance (for TAG) were measured in a Tecan microplate reader. Each measurement was in duplicate, and the values were normalized per mg total protein in the sample.

trypsin [4] = test: Trypsin activity in WT mouse acinar cells without and with CCK; type: cell-based; conditions: MCD 10 mM, 1 hour, 100 nM CCK
Protocol: as §1, with “(K and L) Mouse acinar cells were treated for 16 hours with LDL (30 μg/mL) or the combination of LDL and 10 μM U18666A. (M and N) Mice received injections of U18666A as detailed in FIG. 9B.” left out, “Each symbol in A-F and I represents an individual mouse or cell preparation. Values are mean±SEM from 3 to 7 mice or cell preparations per condition. ^§ P<0.05, ^§§ P<0.01 vs. control cells (without MCD/MCD-Chol). ***P<0.001 vs. saline-treated mice. ^#P<0.05, ^##P<0.01, ^###P<0.001 vs. CER-AP alone (no inhibitors).” left out, “Scale bars: 10 μm.” left out

[5] = tested on: mouse pancreatic acinar cells; test: Ex-vivo CCK-AP in mouse pancreatic acinar cells treated with simvastatin or MCD; type: cell-based; conditions: simvastatin 4 μM, 3 h or MCD 10 mM, 1 h
Protocol: as §3, §5, §4, §6

mouse acinar cells [6] = conditions: cited from earlier work
pancreas = conditions: pharmacologic autophagy enhancer; cited from earlier work

CC(C)(CCCCCC(O)CCCCCC(C)(C)C(=O)O)C(=O)O [BemA, Bempedoic acid]
cholesterol overload in CER-AP (FIG. 25C) [1]: decreased | inflammation in CER-AP (FIG. 25C) [1]: ameliorated | necrosis in CER-AP (FIG. 25C) [1]: ameliorated | trypsin activity in CER-AP (FIG. 25C) [1]: ameliorated | cholesterol overload, CER/CCK-AP (CER/CCK-AP): prevented | disease severity, CER/CCK-AP (CER/CCK-AP): reduced | myotoxicity (muscles): minimal

methyl-β-cyclodextrin [MCD]
Trypsin activity, KO cells, MCD (trypsin [2]): greatly decreased | Resistance of Gnptab−/− acinar cells to MCD (mouse acinar cells [3]): highly resistant | MCD concentration at which cholesterol-reducing effect is evident (mouse acinar cells [3]; only at this concentration): 50 mM | CCK-induced trypsinogen activation (trypsin [4]): reduced | cholesterol overload in ex-vivo CCK-AP [5]: Reducing | extent of necrosis in ex-vivo CCK-AP [5]: greatly decreased | trypsinogen activation in ex-vivo CCK-AP [5]: greatly decreased | usual cholesterol-reducing MCD concentration (mouse acinar cells [6]): 1 to 5 mM

OC[C@H]1O[C@H](O[C@H]2O[C@H](CO)[C@@H](O)[C@H](O)[C@H]2O)[C@H](O)[C@@H](O)[C@@H]1O [trehalose]
pancreas injury in AP models (pancreas): largely prevented

Reference: patent publication US20260325485A1, “COMPOSITIONS AND METHODS FOR TREATING PANCREATITIS” (The United States Government as represented by the …, priority 2022, published 2026)
